Laboratory results taken from US20260216182A1, “PYRIDAZINE NLRP3 INHIBITOR COMPOUND, PHARMACEUTICAL COMPOSITION, AND PREPARATION METHOD THEREFOR AND USE THEREOF” (CHANGCHUN GENESCIENCE PHARMACEUTICAL CO., LTD., priority 2022, published 2026).
Read-outs that look alike come from different tables or passages of the source.

Tests used:
IL-1β [1] = test: Mouse acute peritonitis model (LPS/ATP), IL-1β in peritoneal lavage fluid and blood; assay type: in vivo, C57BL/6 mice; details: 10 mg/kg oral; for inhibition at 10 mg/kg: Mus musculus, vs vehicle group
Protocol: Test Example 2: Mouse Acute Peritonitis Model Evaluation Experiment
Male C57BL/6 mice were orally administered with a 10 mg/kg dose of the test compound or control vehicle, and then injected intraperitoneally with 1 μg of E. coli 055: B5 ultrapure lipopolysaccharide (LPS) suspension 1 h later, followed by an intraperitoneal injection of 0.5 ml of 30 mM disodium salt ATP suspension (in PBS, the pH of the ATP solution was adjusted to 7.2 before injection) 2 h later. After 30 min, all animals would be euthanized by carbon dioxide, and blood and peritoneal lavage fluid would be collected. The peritoneal lavage fluid was kept at 4° C.
Preparation of peritoneal lavage fluid: The peritoneal cavity would be lavaged with ice-cold PBS (3 mL) containing 25 U/mL heparin and 10% heat-inactivated FBS. Prior to use, one tablet of the protease inhibitor mixture was added per 50 mL of buffer. The collected lavage fluid would be centrifuged (centrifugation conditions: 1000g, 4° C., 10 min) to remove cells and cell debris, and the clarified samples would be stored at −80° C. for measurement of cytokine IL-1β.
The mouse IL-1β/IL-1F2 DuoSet ELISA kit (R&D Systems) was used to measure the changes in IL-1β cytokine levels in peritoneal lavage fluid and serum. By comparing with the Vehical group, the inhibition rate of the compound on IL-1β was calculated.

IL-1β [2] = test: MSU-induced rat air pouch model, IL-1β in exudate; assay type: in vivo, SD rats; details: FIG. 2
Protocol: Test Example 4 MSU-Induced Rat Air Pouch Model Test
Male SD rats were used in this experiment. After an adaptation period, a dorsal air pouch model was established. On the first, fourth and seventh days of the molding, 20 ml of sterile air was injected subcutaneously into the back of the rat with an injection needle to maintain the inflation of the air pouch. On the eighth day, different doses of the compound or vehicle control were administered by oral gavage. 25 mg of sodium urate suspension was injected into the dorsal air pouch, and 5 h later, the air pouch exudate was collected. The exudate was centrifuged at 1500 rpm for 20 min, and the supernatant was collected and the IL-Iβ production was detected by ELISA (R&D, Ra1 IL-1β kit).

[3] = tested on: MSU-induced acute rat gouty arthritis model; test: MSU-induced rat acute gouty arthritis model; assay type: in vivo, SD rats; details: FIG. 1
Protocol: Test Example 3 MSU-Induced Rat Gouty Arthritis Model Evaluation Test
In this test, male SD rats were used to establish an acute gouty arthritis model by injecting 64 mg/mL sodium urate (MSU) crystal suspension into the right hind ankle joint cavity of the rats. The animals were randomly divided into normal control group, model control group, different dose groups of test compound, 7 rats in each group. The compound group was orally administered with the compound 1 h before and after modeling, and the normal control group and model control group were given an equal amount of vehicle. The foot circumference and foot diameter were measured before and 24 h after modeling.

NLRP3 = target: T1, NLRP3 (Homo sapiens, UniProt Q96P20); test: IC50 of NLRP3 inhibitors in reducing IL-1β secretion by THP-1 cells (PMA, LPS, nigericin; ELISA); assay type: cell-based; details: compound + nigericin 1 h
T1 construct: endogenous in cells; host or cells: THP-1 (human monocyte, PMA-differentiated, LPS-primed, nigericin-stimulated)
Method in brief: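 PMA-differentiated THP-1 macrophages (72 h) primed with LPS for 4 h, then given compound (0.32–5000 nM final) plus nigericin for 1 h at 37°C. Secreted IL-1β quantified by ELISA on 100-fold diluted supernatant.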

T1 sequence (Q96P20 whole entry): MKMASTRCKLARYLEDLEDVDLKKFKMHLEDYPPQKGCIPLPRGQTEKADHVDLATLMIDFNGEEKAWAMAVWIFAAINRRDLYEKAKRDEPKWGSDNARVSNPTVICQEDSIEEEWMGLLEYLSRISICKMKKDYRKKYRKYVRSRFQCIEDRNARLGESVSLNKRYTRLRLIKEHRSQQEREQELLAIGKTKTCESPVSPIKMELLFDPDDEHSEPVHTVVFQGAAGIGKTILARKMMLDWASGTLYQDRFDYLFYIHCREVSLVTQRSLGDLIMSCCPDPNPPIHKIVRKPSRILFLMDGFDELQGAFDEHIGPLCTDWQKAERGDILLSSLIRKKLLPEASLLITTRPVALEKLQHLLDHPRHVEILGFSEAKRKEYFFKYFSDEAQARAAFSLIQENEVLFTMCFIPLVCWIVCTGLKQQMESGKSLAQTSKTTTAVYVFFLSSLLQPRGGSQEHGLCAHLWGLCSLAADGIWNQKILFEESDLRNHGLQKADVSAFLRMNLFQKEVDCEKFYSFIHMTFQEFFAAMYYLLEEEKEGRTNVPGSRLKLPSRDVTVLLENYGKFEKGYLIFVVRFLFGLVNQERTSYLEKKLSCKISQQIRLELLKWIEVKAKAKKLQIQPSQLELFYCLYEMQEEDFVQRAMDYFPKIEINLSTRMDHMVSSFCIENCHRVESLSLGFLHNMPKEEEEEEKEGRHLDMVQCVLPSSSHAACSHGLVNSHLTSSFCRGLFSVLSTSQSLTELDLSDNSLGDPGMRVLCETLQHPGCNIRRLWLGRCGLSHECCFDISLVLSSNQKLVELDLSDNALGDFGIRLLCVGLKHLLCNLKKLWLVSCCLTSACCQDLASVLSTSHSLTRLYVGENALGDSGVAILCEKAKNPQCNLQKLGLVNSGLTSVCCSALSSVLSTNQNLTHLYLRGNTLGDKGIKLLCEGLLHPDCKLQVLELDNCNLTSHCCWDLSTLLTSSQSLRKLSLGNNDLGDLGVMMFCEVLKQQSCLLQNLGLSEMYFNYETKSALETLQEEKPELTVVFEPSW

For `CC#Cc1ccc2c(-c3ccc(Cl)cc3O)nnc(NC[C@H](O)CO)c2c1` [Compound 062, (S)-3-((4-(4-chloro-2-hydroxyphenyl)-7-(prop-1-yn-1-yl)phthalazin-1-yl)amino) propan-1,2-diol], the “inhibitory effect on IL-1β in the in vivo animal model (in words)” value (IL-1β [1]) was “Conclusion: Some compounds showed inhibitory effects on IL-1β in the in vivo animal model evaluation experiment, among which compound 062 had the most significant inhibitory effect”, the inhibition at 10 mg/kg (IL-1β [1]; read-out: IL-1β Peritoneal lavage fluid (inhibition rate)) was 94% and the inhibition at 10 mg/kg (IL-1β [1]; read-out: IL-1β Plasma (inhibition rate)) was 96%. The “effect on IL-1β compared with colchicine and tofacitinib” value (IL-1β [2]) was “better than that of colchicine and tofacitinib”, the “production of IL-1β in the air pouch” value (IL-1β [2]; oral gavage, exudate 5 h after MSU) was “significantly inhibited the production of IL-1β in the air pouch” and the “effect on ankle joint swelling compared with control compound” value [3] was “significantly better than that of the control compound”. The ankle joint swelling ([3]; oral, 1 h before and after modeling, 24 h after modeling) was “dose-dependent improvement in ankle joint swelling” and the IC50 (NLRP3) was 9.7 nM.
